Entries after “also recorded” stand apart in the source; their conditions may differ. Marks after values point to notes of the source that are not given here.
Tests used:
Drosophila melanogaster [1] = experiment: Antitoxicity assay, combined treatment with 0.15 M H2O2
Description: Toxicity was assayed according to our standard protocols. CRB and SFRB were tested at five concentrations: 1, 4, 8.12, 32.5 and 130 mg/mL and 0.16, 0.625, 1.25, 5 and 20 mg/mL, respectively. […] Tested groups consisted of larvae fed with Drosophila Instant Medium (Formula 4–24, Carolina Biological Supply, Burlington, NC, USA) supplemented with the assessed compounds concentrations. Emerging adults of all groups were counted and toxicity was determined as the percentage of hatched individuals in each treatment compared with the negative control.

Drosophila melanogaster [2] = experiment: Chronic treatments: lifespan and healthspan assays; type: in vivo; settings: for Healthspan (80th Percentile) / Mean Lifespan: chronic, mean ±SE; for lifespan compared with concurrent control: all tested concentrations
Description: Flies used in the lifespan assays show the same genetic background those used in the genotoxicity assays in order to compare both result. The treated adults consisted of the F1 progeny from mwh and flr^3 parental strains produced by a 24 h eggs-lying in yeast medium. The same compounds and concentrations as in the toxicity/genotoxicity experiments were assayed. Lifespan assays were carried out at 25 °C according to the procedure described by Fernandez-Bedmar et al.. Briefly, synchronized 72 ± 12-h-old trans-heterozygous larvae were washed in distilled water, collected and transferred in groups of 100 individuals into test vials containing 0.85 g Drosophila Instant Medium and 4 mL of the different concentrations of the compounds to be assayed. Emerged adults from pupae were collected under CO2 anaesthesia and placed in groups of 25 individuals of the same sex into sterile vials containing 0.21 g Drosophila Instant Medium and 1 mL of different concentrations of the compounds to be tested. Flies were chronically treated during all their life. The number of survivors was determined twice a week in three different replicates.

[3] = system: LINE-1 repetitive sequences of HL-60 cells; experiment: Methylation status by qMSP, LINE-1; type: cell-based, human; settings: HL-60, 5 h
Description: Then, DNA was extracted similarly to previously described DNA fragmentation assay. After that, the DNA was converted with bisulphite (EZ DNA Methylation-Gold™ Kit, Zymo Research, Irvine, CA, USA). Bisulphite-modified DNA was used for fluorescence-based real-time quantitative Methylation-Specific PCR (qMSP) using 5 µM of each forward and reverse primer (Isogen Life Science BV, Utrecht, The Netherlands), 2 µL of iTaq™ Universal SYBR® Green Supermix (Bio-Rad Laboratories, Inc., Hercules, CA, USA); it contains antibody-mediated hot-start iTaq DNA polymerase, dNTPs, MgCl2, SYBR® Green I dye, enhancers, stabilizers and a blend of passive reference dyes including ROX and fluorescein) and 25 ng of bisulphite converted genomic DNA.
PCR conditions included initial denaturalisation at 95 °C for 3 min and amplification which consisted of 45 cycles at 95 °C for 10 s, 60 °C for 15 s and 72 °C for 15 s, taking picture at the end of each elongation cycle. After that, melting curve was determined increasing 0.5 °C each 0.05 s from 60 °C to 95 °C and taking pictures.
QMSP was carried out in 48 well plates in MiniOpticon Real-Time PCR System (MJ Mini Personal Thermal Cycler, Bio-Rad) and were analysed by Bio-Rad CFX Manager 3.1 Software. The housekeeping Alu-C4 was used as a reference to correct for total DNA input. Alu-C4 and the target repetitive elements Alu-M1, LINE-1 and Sat-α were obtained from Isogen Life Science (Utrecht, The Netherlands) and their sequences are shown in Table 4. Each sample was analysed in triplicate.
The results of each CT were obtained from each qMSP. Data were normalised with the housekeeping Alu C4 using the Nikolaidis et al. and Liloglou et al. comparative CT method (ΔΔCT). One-way ANOVA and post-hoc Tukey’s test are used to evaluate the differences between the tested compounds, repetitive elements and concentrations.

Drosophila melanogaster [4] = experiment: Antigenotoxicity, wing spot test, combined treatment with hydrogen peroxide; type: in vivo; set-up: key to Total Spots, statistical diagnosis (Kastenbaum-Bowman test): * (positive); Δ (negative); β (inconclusive) vs. respective positive control
Description: All inconclusive and positive results (p > 0.05) were analysed with the nonparametric U-test of Mann, Whitney and Wilcoxon (α = β = 0.05). Anter et al. described the antigenotoxicity method conducted in D. melanogaster. […] Single and twin spots per wing were also recorded and compared with the concurrent negative control as described before. Finally, the inhibition percentages (IP) for the combined treatments were calculated as described by Abraham: IP = [(genotoxin alone-combined treatment)/genotoxin alone] × 100.

HL-60 cells = experiment: Alkaline SCGE (comet assay), Tail Moment; type: cell-based, human; settings: HL-60, 5 h
Description: DNA integrity was assayed by SCGE as described by Olive and Banáth with minor modifications. […] After treatment, cells were washed twice and adjusted to 6.25 × 10^5 cells/mL in PBS. Electrophoresis gels were prepared pouring a 1:4 dilution (cells in liquid low-melting-point agarose at 40 °C, […], Sigma) into slides. Gels were covered with a coverslip and allowed to solidify at RT for 30 min. Once the slides solidified, the coverslips were carefully removed and slides were bathed in freshly prepared lysing solution (2.5 M NaCl, 100 mM Na-EDTA, 10 mM Tris, 250 mM NaOH, 10% DMSO and 1% Triton X-100; pH = 13) for 1 h at 4 °C. Thereafter, slides were equilibrated in alkaline electrophoresis buffer (300 mM NaOH and 1 mM Na-EDTA, pH = 13) for 20-30 min at 4 °C. Once equilibrated, the slides were underwent electrophoresis (12 V, 400 mA for 8 min) in the dark and were immediately neutralized in cold neutral solution (0.4 M Tris-HCl buffer, pH 7.5) for 10 min. […] Gels were stained with 7 μL propidium iodide and photographed in a DM2500 microscope (Leica Microsystems GmBH, Wetzlar, Germany) at 400× magnification. […] A one-way ANOVA and post-hoc Tukey's test with SPSS Statistics for Windows, Version 19.0 (2010, IBM Corporation, Armonk, NY, USA) was applied to determine the effect of the tested compounds on HL-60 cell DNA integrity from the analyses of Tail Moment (TM) data.

[5] = GLU 2.7 mM vs concurrent water control
[6] = GLU 11 mM vs concurrent water control
[7] = GLU 21.86 mM vs concurrent water control
[8] = GLU 87.5 mM vs concurrent water control
[9] = GLU 350 mM vs concurrent water control
[10] = GLU 11 mM + 0.15 M H2O2, No. of spots in parentheses
[11] = GLU 350 mM + 0.15 M H2O2, No. of spots in parentheses
[12] = TAU 0.25 mM vs concurrent water control
[13] = TAU 1 mM vs concurrent water control
[14] = TAU 2 mM vs concurrent water control
[15] = TAU 8 mM vs concurrent water control
[16] = TAU 32 mM vs concurrent water control
[17] = TAU 1 mM + 0.15 M H2O2, No. of spots in parentheses
[18] = TAU 32 mM + 0.15 M H2O2, No. of spots in parentheses

OC[C@H]1OC(O)[C@H](O)[C@@H](O)[C@@H]1O (some centres unmarked) [GLU, Glucose]
Survival (%) Combined Treatment (Drosophila melanogaster [1]; GLU 2.7 mM + 0.15 M hydrogen peroxide): 60%
Survival (%) Combined Treatment (Drosophila melanogaster [1]; GLU 11 mM + 0.15 M hydrogen peroxide): 84.35 * %
Survival (%) Combined Treatment (Drosophila melanogaster [1]; GLU 21.86 mM + 0.15 M hydrogen peroxide): 88.65 * %
Survival (%) Combined Treatment (Drosophila melanogaster [1]; GLU 87.5 mM + 0.15 M hydrogen peroxide): 79 * %
Survival (%) Combined Treatment (Drosophila melanogaster [1]; GLU 350 mM + 0.15 M hydrogen peroxide): 72 * %
increase of the quality of life (healthspan) (Drosophila melanogaster [2]; 350 mM GLU): 34%
Healthspan Difference (%) (Drosophila melanogaster [2]; [5]): −4.5%
Mean Lifespan Difference (%) (Drosophila melanogaster [2]; [5]): 2.65%
Healthspan (80th Percentile) (Drosophila melanogaster [2]; GLU 2.7 mM): 31.14 ± 1.53 days
Mean Lifespan (Drosophila melanogaster [2]; GLU 2.7 mM): 61.25 ± 2.12 days
Healthspan Difference (%) (Drosophila melanogaster [2]; [6]): 25.65%
Mean Lifespan Difference (%) (Drosophila melanogaster [2]; [6]): 8.76%
Healthspan (80th Percentile) (Drosophila melanogaster [2]; GLU 11 mM): 41 ± 3.4 days
Mean Lifespan (Drosophila melanogaster [2]; GLU 11 mM): 64.9 ± 2.05 days
Healthspan Difference (%) (Drosophila melanogaster [2]; [7]): −5.8%
Mean Lifespan Difference (%) (Drosophila melanogaster [2]; [7]): 5.9%
Healthspan (80th Percentile) (Drosophila melanogaster [2]; GLU 21.86 mM): 30.66 ± 3.62 days
Mean Lifespan (Drosophila melanogaster [2]; GLU 21.86 mM): 63.21 ± 2.08 days
Healthspan Difference (%) (Drosophila melanogaster [2]; [8]): −8.4%
Mean Lifespan Difference (%) (Drosophila melanogaster [2]; [8]): 1.39%
Healthspan (80th Percentile) (Drosophila melanogaster [2]; GLU 87.5 mM): 29.9 ± 1.96 days
Mean Lifespan (Drosophila melanogaster [2]; GLU 87.5 mM): 60.5 ± 2.5 days
Healthspan Difference (%) (Drosophila melanogaster [2]; [9]): −34%
Mean Lifespan Difference (%) (Drosophila melanogaster [2]; [9]): −1.2%
Healthspan (80th Percentile) (Drosophila melanogaster [2]; GLU 350 mM): 21.5 ± 0.76 days
Mean Lifespan (Drosophila melanogaster [2]; GLU 350 mM): 59 ± 3.1 days
lifespan compared with concurrent control (Drosophila melanogaster [2]): did not significantly differ
methylation status of LINE elements ([3]; 11 mM GLU): hypomethylated
methylation status of LINE repetitive element ([3]; 350 mM GLU): reduced the methylation status
IP (%) inhibition percentage (Drosophila melanogaster [4]; GLU 11 mM + 0.15 M H2O2): 76.5%
Twin Spots m = 5 (Drosophila melanogaster [4]; GLU 11 mM + 0.15 M H2O2): 0 clones per wing
Large Simple Spots (>2 Cells) m = 5 (Drosophila melanogaster [4]; [10]): 0.025 (1) clones per wing
Small Single Spots (1–2 Cells) m = 2 (Drosophila melanogaster [4]; [10]): 0.075 (3) clones per wing
Total Spots m = 2 (Drosophila melanogaster [4]; [10]): 0.1 (4) clones per wing
Total Spots, statistical diagnosis (Kastenbaum-Bowman test) (Drosophila melanogaster [4]; GLU 11 mM + 0.15 M H2O2 vs positive control): *
IP (%) inhibition percentage (Drosophila melanogaster [4]; GLU 350 mM + 0.15 M H2O2): 52.9%
Twin Spots m = 5 (Drosophila melanogaster [4]; GLU 350 mM + 0.15 M H2O2): 0 clones per wing
Large Simple Spots (>2 Cells) m = 5 (Drosophila melanogaster [4]; [11]): 0.025 (1) clones per wing
Small Single Spots (1–2 Cells) m = 2 (Drosophila melanogaster [4]; [11]): 0.175 (7) clones per wing
Total Spots m = 2 (Drosophila melanogaster [4]; [11]): 0.2 (8) clones per wing
Total Spots, statistical diagnosis (Kastenbaum-Bowman test) (Drosophila melanogaster [4]; GLU 350 mM + 0.15 M H2O2 vs positive control): *
TM versus concurrent control (DNA damage) (HL-60 cells; three lowest concentrations of the cytotoxicity assay): significantly induce TM values higher than the concurrent control

NCCS(=O)(=O)O [TAU, 2-aminoethanesulfonic acid]
Survival (%) Combined Treatment (Drosophila melanogaster [1]; TAU 0.25 mM + 0.15 M hydrogen peroxide): 40.76%
Survival (%) Combined Treatment (Drosophila melanogaster [1]; TAU 1 mM + 0.15 M hydrogen peroxide): 57.69 * %
Survival (%) Combined Treatment (Drosophila melanogaster [1]; TAU 2 mM + 0.15 M hydrogen peroxide): 56.9 * %
Survival (%) Combined Treatment (Drosophila melanogaster [1]; TAU 8 mM + 0.15 M hydrogen peroxide): 40%
Survival (%) Combined Treatment (Drosophila melanogaster [1]; TAU 32 mM + 0.15 M hydrogen peroxide): 42.3%
Healthspan Difference (%) (Drosophila melanogaster [2]; [12]): −7.3%
Mean Lifespan Difference (%) (Drosophila melanogaster [2]; [12]): 4.57%
Healthspan (80th Percentile) (Drosophila melanogaster [2]; TAU 0.25 mM): 34.98 ± 3.954 days
Mean Lifespan (Drosophila melanogaster [2]; TAU 0.25 mM): 67.94 ± 2.603 days
Healthspan Difference (%) (Drosophila melanogaster [2]; [13]): −20%
Mean Lifespan Difference (%) (Drosophila melanogaster [2]; [13]): 2.81%
Healthspan (80th Percentile) (Drosophila melanogaster [2]; TAU 1 mM): 30.22 ± 1.878 days
Mean Lifespan (Drosophila melanogaster [2]; TAU 1 mM): 66.81 ± 3.215 days
Healthspan Difference (%) (Drosophila melanogaster [2]; [14]): −6.4%
Mean Lifespan Difference (%) (Drosophila melanogaster [2]; [14]): −4.8%
Healthspan (80th Percentile) (Drosophila melanogaster [2]; TAU 2 mM): 35.357 ± 0.9 days
Mean Lifespan (Drosophila melanogaster [2]; TAU 2 mM): 61.83 ± 2.25 days
Healthspan Difference (%) (Drosophila melanogaster [2]; [15]): −2.6%
Mean Lifespan Difference (%) (Drosophila melanogaster [2]; [15]): 7.95%
Healthspan (80th Percentile) (Drosophila melanogaster [2]; TAU 8 mM): 36.8 ± 2.832 days
Mean Lifespan (Drosophila melanogaster [2]; TAU 8 mM): 70.142 ± 2.385 days
Healthspan Difference (%) (Drosophila melanogaster [2]; [16]): −3.2%
Mean Lifespan Difference (%) (Drosophila melanogaster [2]; [16]): 1.6%
Healthspan (80th Percentile) (Drosophila melanogaster [2]; TAU 32 mM): 36.57 ± 3.55 days
Mean Lifespan (Drosophila melanogaster [2]; TAU 32 mM): 66.04 ± 2.055 days
lifespan compared with concurrent control (Drosophila melanogaster [2]): did not significantly differ
methylation status of LINE-1 ([3]; TAU highest concentration (32 mM)): reduced this methylation status; also recorded: induced hypomethylation
IP (%) inhibition percentage (Drosophila melanogaster [4]; TAU 1 mM + 0.15 M H2O2): 70.6%
Large Simple Spots (>2 Cells) m = 5 (Drosophila melanogaster [4]; TAU 1 mM + 0.15 M H2O2): 0 clones per wing
Twin Spots m = 5 (Drosophila melanogaster [4]; TAU 1 mM + 0.15 M H2O2): 0 clones per wing
Small Single Spots (1–2 Cells) m = 2 (Drosophila melanogaster [4]; [17]): 0.125 (5) clones per wing
Total Spots m = 2 (Drosophila melanogaster [4]; [17]): 0.125 (5) clones per wing
Total Spots, statistical diagnosis (Kastenbaum-Bowman test) (Drosophila melanogaster [4]; TAU 1 mM + 0.15 M H2O2 vs positive control): *
IP (%) inhibition percentage (Drosophila melanogaster [4]; TAU 32 mM + 0.15 M H2O2): 38.1%
Twin Spots m = 5 (Drosophila melanogaster [4]; TAU 32 mM + 0.15 M H2O2): 0 clones per wing
Large Simple Spots (>2 Cells) m = 5 (Drosophila melanogaster [4]; [18]): 0.026 (1) clones per wing
Small Single Spots (1–2 Cells) m = 2 (Drosophila melanogaster [4]; [18]): 0.236 (9) clones per wing
Total Spots m = 2 (Drosophila melanogaster [4]; [18]): 0.263 (10) clones per wing
Total Spots, statistical diagnosis (Kastenbaum-Bowman test) (Drosophila melanogaster [4]; TAU 32 mM + 0.15 M H2O2 vs positive control): *
TM versus concurrent control (DNA damage) (HL-60 cells; 0.25 and 2 mM TAU): significantly induce TM values higher than the concurrent control
Tail Moment (TM) of representative photograph (HL-60 cells; concentration not given): 2.49

From paper PMC8069289 (Molecules, 2021)
